Results reported in PMC11453076, “Optimization, purification and characterization of laccase from a new endophytic Trichoderma harzianum AUMC14897 isolated from Opuntia ficus-indica and its applications in dye decolorization and wastewater treatment” (Microbial Cell Factories, 2024).

Test system: T1, laccase from T. harzianum AUMC14897
T1 construct: gene benzenediol:oxygen oxidoreductase; 72 kDa by GFC and SDS-PAGE; single zymogram band
Assay: ABTS oxidation at […] nm, Lineweaver-Burk plot
Format: biochemical, Trichoderma harzianum
Settings: ABTS 0.02-0.1 mM; pH and temperature of the Km assay not restated (general assay: 50 mM sodium acetate pH 5.4, 37 °C)

In the case of CCn1c(=NN=c2sc3cc(S(=O)(=O)O)ccc3n2CC)sc2cc(S(=O)(=O)O)ccc21 [ABTS, 2,2'-Azino-bis(3-ethylbenzothiazoline-6-sulfonic acid)], the Km is reported as 100 µM.
